For orientation: Emax means the greatest response seen or fitted, relative to the assay's reference. The term EC50 denotes the concentration giving half of the maximal effect.

The assay concerns the target T1, Human M4 (Homo sapiens, UniProt P08173).
T1 construct: expressed in transfected cells
T1 sequence (P08173 1-479): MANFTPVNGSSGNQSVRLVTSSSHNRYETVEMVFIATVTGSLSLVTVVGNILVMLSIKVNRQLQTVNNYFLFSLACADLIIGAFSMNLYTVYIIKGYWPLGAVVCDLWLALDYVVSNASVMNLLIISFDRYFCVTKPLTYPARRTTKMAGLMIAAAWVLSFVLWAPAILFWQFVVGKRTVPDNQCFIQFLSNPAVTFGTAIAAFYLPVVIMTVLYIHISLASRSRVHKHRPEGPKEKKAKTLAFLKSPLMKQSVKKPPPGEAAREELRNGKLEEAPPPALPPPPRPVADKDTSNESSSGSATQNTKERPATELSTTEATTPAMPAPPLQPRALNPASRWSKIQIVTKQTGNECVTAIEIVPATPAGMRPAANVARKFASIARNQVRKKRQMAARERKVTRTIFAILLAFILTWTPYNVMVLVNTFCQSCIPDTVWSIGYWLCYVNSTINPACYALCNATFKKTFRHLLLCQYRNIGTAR
The assay is described as follows: mAChR M4 cell-based functional assay (calcium flux, potentiation of EC20 acetylcholine response), hM4-Gqi5 CHO-K1 cells. The following applies: for Emax at 30 µM: % ACh maximum at 30 μM, human M4, read-out: Emax; for EC50: hM4-Gqi5 CHO-K1 cells, calcium flux, PAM of EC20 acetylcholine, read-out: Human M4 EC50. The method, then: Human and rat M4 cDNAs, along with the chimeric G protein Gqi5, were transfected into Chinese hamster ovary (CHO-K1) cells purchased from the American Type Culture Collection using Lipofectamine2000. hM4-Gqi5 cells were grown in Ham's F-12 medium containing 10% heat-inactivated fetal bovine serum (FBS), 20 mM HEPES, 50 μg/mL G418 sulfate, and 500 μg/mL Hygromycin B. rM4-Gqi5 cells were grown in DMEM containing 10% heat-inactivated FBS, 20 mM HEPES, 400 μg/mL G418 sulfate, and 500 μg/mL Hygromycin B.
For high throughput measurement of agonist-evoked increases in intracellular calcium, CHO-K1 cells stably expressing muscarinic receptors were plated in growth medium lacking G418 and hygromycin at 15,000 cells/20 μL/well in Greiner 384-well black-walled, tissue culture (TC)-treated, clear-bottom plates (VWR). Cells were incubated overnight at 37° C. and 5% CO2. The next day, cells were washed using an ELX 405 (BioTek) with assay buffer; the final volume was then aspirated to 20 μL. Next, 20 μL of a 2.3 μM stock of Fluo-4/acetoxymethyl ester (Invitrogen, Carlsbad, CA), prepared as a 2.3 mM stock in DMSO and mixed in a 1:1 ratio with 10% (w/v) Pluronic F-127 and diluted in assay buffer, was added to the wells and the cell plates were incubated for 50 min at 37° C. and 5% CO2. Dye was removed by washing with the ELX 405 and the final volume was aspirated to 20 μL. Compound master plates were formatted in an 11 point concentration-response curve (CRC) format (1:3 dilutions) in 100% DMSO with a starting concentration of 10 mM using a BRAVO liquid handler (Agilent). Test compound CRCs were then transferred to daughter plates (240 nL) using the Echo acoustic plate reformatter (Labcyte, Sunnyvale, CA) and then diluted into assay buffer (40 μL) to a 2× stock using a Thermo Fisher Combi (Thermo Fisher Scientific, Waltham, MA).
Calcium flux was measured using the Functional Drug Screening System (FDSS) 6000 or 7000 (Hamamatsu Corporation, Tokyo, Japan) as an increase in the fluorescent static ratio. Compounds were applied to cells (20 μL, 2×) using the automated system of the FDSS at 2-4 seconds into the protocol and the data were collected at 1 Hz. At 144 seconds, 10 μL of an EC20 concentration of the muscarinic receptor agonist acetylcholine was added (5×), followed by the addition of 12 μL of an EC80 concentration of acetylcholine at the 230 second time point (5×). Agonist activity was analyzed as a concentration-dependent increase in calcium mobilization upon compound addition. Positive allosteric modulator activity was analyzed as a concentration-dependent increase in the EC20 acetylcholine response. Antagonist activity was analyzed as a concentration-dependent decrease in the EC80 acetylcholine response. Concentration-response curves were generated using a four-parameter logistical equation in XLFit curve fitting software (IDBS, Bridgewater, NJ) for Excel (Microsoft, Redmond, WA) or Prism (GraphPad Software, Inc., San Diego, CA).
Compounds were synthesized as described above. Activity (EC50 and Emax) was determined in the mAChR M4 cell-based functional assay as described above and the data are shown in Tables 2-4. The compound number corresponds to the compound numbers used in Table 1.
(In general: A change in cytosolic calcium serves as a functional read-out for many receptors and channels.)

In the case of `Cc1nn(C)cc1-c1cnc2c(c1)CN(c1nn3cnnc3c(C)c1C)CC2` [Compound 22, 3-(1,3-dimethylpyrazol-4-yl)-6-(7,8-dimethyl-[1,2,4]triazolo[4,3-b]pyridazin-6-yl)-7,8-dihydro-5H-1,6-naphthyridine], the concentration giving a half-maximal response (EC50) worked out at 146 nM. The Emax at 30 µM (CHO-K1) came out at 93%.

As for `Cc1nn(C)c(C)c1-c1cnc2c(c1)CN(c1nn3cnnc3c(C)c1C)CC2` [Compound 23, 6-(7,8-dimethyl-[1,2,4]triazolo[4,3-b]pyridazin-6-yl)-3-(1,3,5-trimethylpyrazol-4-yl)-7,8-dihydro-5H-1,6-naphthyridine], the EC50 came to 149 nM. Besides, the Emax at 30 µM (CHO-K1) was found to be 94%.

`Cc1c(N2CCc3ncc(-c4cnn(Cc5ccccn5)c4)cc3C2)nn2cnnc2c1C` [Compound 24, 6-(7,8-dimethyl-[1,2,4]triazolo[4,3-b]pyridazin-6-yl)-3-[1-(2-pyridylmethyl)pyrazol-4-yl]-7,8-dihydro-5H-1,6-naphthyridine]: the Emax at 30 µM (CHO-K1) turned out to be 94%.

Consider `Cc1c(N2CCc3ncc(N4CCC5OCCCC5C4)cc3C2)nn2cnnc2c1C` (stereo not drawn) [Compound 25, 6-[6-(7,8-dimethyl-[1,2,4]triazolo[4,3-b]pyridazin-6-yl)-7,8-dihydro-5H-1,6-naphthyridin-3-yl]-2,3,4,4a,5,7,8,8a-octahydropyrano[3,2-c]pyridine], for which the EC50 is 348 nM. For the same molecule, the Emax at 30 µM (CHO-K1) is 65%. Consider `Cc1c(N2CCc3ncc(NCC4CCCO4)cc3C2)nn2cnnc2c1C` (stereo not drawn) [Compound 26, 6-(7,8-dimethyl-[1,2,4]triazolo[4,3-b]pyridazin-6-yl)-N-(tetrahydrofuran-2-ylmethyl)-7,8-dihydro-5H-1,6-naphthyridin-3-amine], for which the EC50 worked out at 737 nM. Besides, under “CHO-K1”, the Emax at 30 µM is 75%. The like results for `COc1ccc(Nc2cnc3c(c2)CN(c2nn4cnnc4c(C)c2C)CC3)c(F)c1F` [Compound 27, N-(2,3-difluoro-4-methoxy-phenyl)-6-(7,8-dimethyl-[1,2,4]triazolo[4,3-b]pyridazin-6-yl)-7,8-dihydro-5H-1,6-naphthyridin-3-amine] were, in that order, 597 nM and 77%. On to `COc1ccc(Nc2cnc3c(c2)CN(c2nn4cnnc4c(C)c2C)CC3)c(F)c1` [Compound 28, 6-(7,8-dimethyl-[1,2,4]triazolo[4,3-b]pyridazin-6-yl)-N-(2-fluoro-4-methoxy-phenyl)-7,8-dihydro-5H-1,6-naphthyridin-3-amine], for which the EC50 is 231 nM. In addition, the Emax at 30 µM (CHO-K1) came to 93%. In the case of `Cc1c(N2CCc3ncc(Nc4c(F)ccc(Cl)c4F)cc3C2)nn2cnnc2c1C` [Compound 29, N-(3-chloro-2,6-difluoro-phenyl)-6-(7,8-dimethyl-[1,2,4]triazolo[4,3-b]pyridazin-6-yl)-7,8-dihydro-5H-1,6-naphthyridin-3-amine], the concentration giving a half-maximal response (EC50) came to 443 nM. For the same molecule, the Emax at 30 µM (CHO-K1) was 87%. As to `Cc1c(N2CCc3ncc(Nc4cc(F)cc(F)c4F)cc3C2)nn2cnnc2c1C` [Compound 30, 6-(7,8-dimethyl-[1,2,4]triazolo[4,3-b]pyridazin-6-yl)-N-(2,3,5-trifluorophenyl)-7,8-dihydro-5H-1,6-naphthyridin-3-amine], the EC50 was 120 nM. The Emax at 30 µM (CHO-K1) was 94%. On to `COc1cc(F)c(Nc2cnc3c(c2)CN(c2nn4cnnc4c(C)c2C)CC3)c(F)c1` [Compound 31, N-(2,6-difluoro-4-methoxy-phenyl)-6-(7,8-dimethyl-[1,2,4]triazolo[4,3-b]pyridazin-6-yl)-7,8-dihydro-5H-1,6-naphthyridin-3-amine], for which the EC50 came to 455 nM. Besides, the Emax at 30 µM (CHO-K1) was 88%. With `Cc1c(N2CCc3ncc(Nc4cc(F)ccc4F)cc3C2)nn2cnnc2c1C` [Compound 32, N-(2,5-difluorophenyl)-6-(7,8-dimethyl-[1,2,4]triazolo[4,3-b]pyridazin-6-yl)-7,8-dihydro-5H-1,6-naphthyridin-3-amine], the concentration giving a half-maximal response (EC50) worked out at 84.8 nM. For the same molecule, the maximal effect (Emax) at 30 µM (CHO-K1) came out at 102%. With `Cc1c(N2CCc3ncc(Nc4ccccc4F)cc3C2)nn2cnnc2c1C` [Compound 33, 6-(7,8-Dimethyl-[1,2,4]triazolo[4,3-b]pyridazin-6-yl)-N-(2-fluorophenyl)-5,6,7,8-tetrahydro-1,6-naphthyridin-3-amine], the EC50 worked out at 161 nM. In addition, under “CHO-K1”, the Emax was 94%. On to `Cc1c(N2CCc3ncc(Nc4cc(Cl)ccc4F)cc3C2)nn2cnnc2c1C` [Compound 34, N-(5-chloro-2-fluoro-phenyl)-6-(7,8-dimethyl-[1,2,4]triazolo[4,3-b]pyridazin-6-yl)-7,8-dihydro-5H-1,6-naphthyridin-3-amine], for which the EC50 worked out at 562 nM. For the same molecule, the Emax at 30 µM (CHO-K1) is 93%. For the molecule `Cc1cc(-c2cnc3c(c2)CN(c2nn4cnnc4c(C)c2C)CC3)cc(Cl)n1` [Compound 35, 3-(2-chloro-6-methyl-4-pyridyl)-6-(7,8-dimethyl-[1,2,4]triazolo[4,3-b]pyridazin-6-yl)-7,8-dihydro-5H-1,6-naphthyridine], the EC50 was 1900 nM. For the same molecule, the Emax at 30 µM (CHO-K1) was determined as 78%. The like results for `Cc1c(N2CCc3ncc(-c4ccc(C(F)(F)F)nc4)cc3C2)nn2cnnc2c1C` [Compound 36, 6-(7,8-dimethyl-[1,2,4]triazolo[4,3-b]pyridazin-6-yl)-3-[6-(trifluoromethyl)-3-pyridyl]-7,8-dihydro-5H-1,6-naphthyridine] were, in that order, 295 nM and 85%. The like results for `Cc1ncc(-c2cnc3c(c2)CN(c2nn4cnnc4c(C)c2C)CC3)cn1` [Compound 37, 6-(7,8-dimethyl-[1,2,4]triazolo[4,3-b]pyridazin-6-yl)-3-(2-methylpyrimidin-5-yl)-7,8-dihydro-5H-1,6-naphthyridine] were, in that order, 2280 nM and 59%.

Regarding `Cc1c(N2CCc3ncc(-c4ccc(C5CC5)nc4)cc3C2)nn2cnnc2c1C` [Compound 38, 3-(6-cyclopropyl-3-pyridyl)-6-(7,8-dimethyl-[1,2,4]triazolo[4,3-b]pyridazin-6-yl)-7,8-dihydro-5H-1,6-naphthyridine], the EC50 was found to be 149 nM. Besides, the Emax at 30 µM (CHO-K1) came to 90%. Taken in the same sequence, the figures for `Cc1ccc(-c2cnc3c(c2)CN(c2nn4cnnc4c(C)c2C)CC3)cn1` [Compound 39, 6-(7,8-dimethyl-[1,2,4]triazolo[4,3-b]pyridazin-6-yl)-3-(6-methyl-3-pyridyl)-7,8-dihydro-5H-1,6-naphthyridine] were 115 nM and 95%. Turning to `Cc1c(N2CCc3ncc(-c4cncc(C#N)c4)cc3C2)nn2cnnc2c1C` [Compound 40, 5-[6-(7,8-dimethyl-[1,2,4]triazolo[4,3-b]pyridazin-6-yl)-7,8-dihydro-5H-1,6-naphthyridin-3-yl]pyridine-3-carbonitrile], the EC50 is 716 nM. Besides, the Emax at 30 µM (CHO-K1) came to 69%. As to `COc1ccncc1-c1cnc2c(c1)CN(c1nn3cnnc3c(C)c1C)CC2` [Compound 41, 6-(7,8-dimethyl-[1,2,4]triazolo[4,3-b]pyridazin-6-yl)-3-(4-methoxy-3-pyridyl)-7,8-dihydro-5H-1,6-naphthyridine], the EC50 was found to be 442 nM. Moreover, where the note is “CHO-K1”, the Emax at 30 µM is 81%.

(Values after US20250002507A1, “7,8-DIHYDRO-5H-1,6-NAPHTHYRIDINE DERIVATIVES AS POSITIVE ALLOSTERIC MODULATORS OF THE MUSCARINIC ACETYLCHOLINE RECEPTOR M4 FOR TREATING NEUROLOGICAL AND PSYCHIATRIC DISORDERS” (Vanderbilt University, priority 2021, published 2025).)
